Measurements published in US20220281821A1, “INDAZOLE COMPOUNDS AND THEIR PHARMACEUTICAL COMPOSITIONS” (Jinan University, priority 2019, published 2022).

Columns and labels:
TRKA = biological target: T1, TRKA (Homo sapiens, UniProt P04629); experiment: Z′-LYTE kinase activity assay, TRKA; assay type: biochemical; conditions: ATP 400 uM
T1 construct: purchased life technologies PV3144
Summary of the method: (§1)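 Z′-LYTE FRET assay using Tyr 01 peptide substrate (2 μM) in 50 mM HEPES pH 7.5 with 10 mM MgCl2, 1 mM EGTA and 0.01% BRIJ-35. Inhibition was derived from the phosphorylation ratio versus negative control, with IC50 from concentration gradients.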

TRKB = biological target: T2, TRKB (Homo sapiens, UniProt Q16620); experiment: Z′-LYTE kinase activity assay, TRKB; assay type: biochemical; conditions: ATP 25 uM
T2 construct: purchased life technologies PV3616
Summary of the method: as §1

TRKC = biological target: T3, TRKC (Homo sapiens, UniProt Q16288); experiment: Z′-LYTE kinase activity assay, TRKC; assay type: biochemical; conditions: ATP 50 uM
T3 construct: purchased life technologies PV3617
Summary of the method: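 Recombinant TRK kinase tested in a Z′-LYTE FRET assay with 2 μM Tyr 01 peptide substrate in 50 mM HEPES pH 7.5, 10 mM MgCl2, 1 mM EGTA, 0.01% BRIJ-35. IC50 obtained by curve fitting.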

BaF3-CD74-NTRK1 = biological target: T4, BaF3-CD74-NTRK1 (Homo sapiens, UniProt P04629); experiment: Cell proliferation inhibition (CCK-8), BaF3-CD74-NTRK1 stable strain; assay type: cell-based, mouse; conditions: BaF3-CD74-NTRK1, 72 hours
T4 construct: fused on or other part: P04233 (HLA class II histocompatibility antigen gamma chain)
Summary of the method: (§2)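 Ba/F3 cells stably electroporated with ETV6-NTRK3, CD74-NTRK1 or ETV6-NTRK2, selected with G418 and grown without IL3, then cloned by limiting dilution.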

BaF3-ETV6-NTRK2 = biological target: T5, BaF3-ETV6-NTRK2 (Homo sapiens, UniProt Q16620); experiment: Cell proliferation inhibition (CCK-8), BaF3-ETV6-NTRK2 stable strain; assay type: cell-based, mouse; conditions: BaF3-ETV6-NTRK2, 72 hours
T5 construct: fused on or other part: P41212 (Transcription factor ETV6)
Summary of the method: as §2

BaF3-ETV6-NTRK3 = biological target: T6, BaF3-ETV6-NTRK3 (Homo sapiens, UniProt Q16288); experiment: Cell proliferation inhibition (CCK-8), BaF3-ETV6-NTRK3 stable strain; assay type: cell-based, mouse; conditions: BaF3-ETV6-NTRK3, 72 hours
T6 construct: fused on or other part: P41212 (Transcription factor ETV6)
Summary of the method: as §2

[1] = Rat hepatocyte stability experiment; assay type: in vitro ADME
Description: In William medium E, dilute the 37° C. rat hepatocyte suspension to an appropriate density (viable cell density=2×10^6 cells/mL). In addition, a 2× quantification solution (the concentration of the test compound was 2 μM) was additionally prepared in William's medium E. The hepatocyte solution and 2× quantification solution were preheated in a water bath of 37° C. 40 µL of the preheated hepatocyte solution (2×10^6 cells/mL) was added into the designated wells for 5, 15, 30, 60, and 120 min, and add 40 µL of the preheated 2× quantification solution and start timing. An assay plate was placed in a 37° C., 5% CO2 incubator with shaking at 110 rpm. At 5, 15, 30, 60, and 120 minutes, 240 μL of ACN containing IS was added to each well. The plate was then sealed and stored in a −35° C. freezer. After collecting at all time points, the plate was shaken for 2 minutes and then centrifuging was performed for 15 minutes at 6000 rmp. 100 μL of supernatant from each well was transferred to a 96-well sample plate containing 100 μL of water for LC/MS analysis, determination of compound concentrations, calculation of rate constants and half-lives.

[2] = Pharmacokinetic evaluation in SD rats; assay type: in vivo
Description: Pharmacokinetics and oral bioavailability were tested in SD rats. According to the solubility of the drug, a single dose was administered orally, intravenously or by intraperitoneal injection. Animal blood samples were collected at different time points (0, 0.5, 1, 2, 4, 6, 8, and 24 hours), anticoagulated with heparin, and centrifuged to take the supernatant. Blood samples were analyzed by HPLC-MS. DAS2.1 was used for data analysis to detect half-life (T1/2), maximum blood concentration (Cmax), time to peak (Tmax), area under the drug-time curve (AUC), and bioavailability (BA) and other pharmacokinetic data.

TRKs (TRK1, TRK2, TRK3) = experiment: Kinase activity on TRKs, summary statements; assay type: biochemical; conditions: summary statement
From the text: Kinase activity assay: Z′-LYTE™ technology (detection by fluorescence, enzyme-conjugated format, based on the difference in sensitivity of phosphorylated and non-phosphorylated peptides to proteolytic cleavage) was applied, and using the principle of fluorescence resonance energy transfer (FRET), a Z′-LYTE™ FRET peptide substrate (Z′-LYTE™ Tyrosine 1 Peptide Substrate, Invitrogen, PV3190), and a secondary reaction were used to detect the inhibitory activity of the compounds on TRKs (TRK1, TRK2, TRK3) (life technologies, PV3144, PV3616, PV3617).
Enzymatic reaction: In a 384-well plate, 5 μL of an enzyme-substrate system (50 mM HEPES pH 7.5, 0.01% BRIJ-35, 10 mM MgCl2, 1 mM EGTA, 2 μM Tyr 01 Peptide Substrate) was added and 5 nL of compound (concentration gradient) was transferred thereto by using the echo520 ultramicro liquid pipetting system. After shaking for 10-20 min at room temperature, 200 nL, 12.5 nL and 25 nL of ATP (final concentrations are 400 uM, 25 uM and 50 uM, respectively) were transferred by using the echo520 ultramicro liquid pipetting system. After shaking and mixing, centrifuging was performed. A reaction was carried out at 30° C. in the dark for 1.5 hours.
Assay reaction: 2.54 of Development Solution (1:128 dilution) was added in each well, and incubated at 37° C. in the dark for 1 hour, and then 5 μL of Stop Reagent was added.
Plate reading: fluorescence signals were detected using a Perkin Elmer EnVision Multimode Plate Reader (excitation at 400 nm, and emission at 460 nm, and 535 nm).
Calculation: the inhibition rate of each well was calculated by the fully active well and control signal wells. The data were analyzed as follows:
Phosphorylation ratio=1−{(emission ratio×F100%−C100%)/[C0%−C100%+emission ratio×(F100%−F0%)]}×100;
Inhibition rate=100×(1−compound phosphorylation ratio/negative control phosphorylation ratio).
IC50 values were calculated by using GraphPad Prism 5.0 software.

Ba/F3-TRK stable strains = experiment: Cell proliferation of Ba/F3-TRK stable strains, summary statements; assay type: cell-based, mouse; conditions: summary statement
Description: The brief steps of stable strain construction are as follows: construct a pCDNA3.1(+) plasmid vector carrying genes such as CD74-NTRK1, ETV6-NTRK2 and ETV6-NTRK3; the plasmid was electroporated into Ba/F3 cells using the Amaxa® Cell Line Nucleofector® Kit V; 48 hours after electroporated, G418 with a final concentration of 1000 μg/ml was added for screening for two weeks, and then IL3 was removed, and continued screening to obtain polyclonal stable strains; then single clones were selected by a limiting dilution method. The stable strains were then identified using positive drugs, WB and gene sequencing; and the monoclonal clones that were identified as completely correct may be used for the study of cell proliferation inhibitory activity of inhibitors.
Cell proliferation inhibition activity study: the cells in the logarithmic growth phase were seeded into 96-well plates at 8000-12000 cells/well, and inhibitors at different concentrations (0-10 μM) were added the next day, and incubation was continued for 72 hours; then 10 μL of CCK-8 reagent was added to each well, and the incubation was continued for 1-3 hours; and then use a super microplate reader to measure their absorbance values at 450 nm and 650 nm. The half-inhibition concentration (IC50) was calculated using GraphPad Prism 8.0.0.

T5 sequence (Q16620 538-822 limits assumed): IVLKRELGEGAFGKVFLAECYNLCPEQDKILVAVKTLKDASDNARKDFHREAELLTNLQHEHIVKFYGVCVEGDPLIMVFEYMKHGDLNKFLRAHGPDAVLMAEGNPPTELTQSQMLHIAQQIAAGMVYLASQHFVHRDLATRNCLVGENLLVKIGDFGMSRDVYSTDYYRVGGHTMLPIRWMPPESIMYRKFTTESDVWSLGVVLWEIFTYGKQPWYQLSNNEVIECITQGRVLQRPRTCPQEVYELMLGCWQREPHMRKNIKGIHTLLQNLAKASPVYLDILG
T6 sequence (Q16288 whole entry, the tested form may be a part): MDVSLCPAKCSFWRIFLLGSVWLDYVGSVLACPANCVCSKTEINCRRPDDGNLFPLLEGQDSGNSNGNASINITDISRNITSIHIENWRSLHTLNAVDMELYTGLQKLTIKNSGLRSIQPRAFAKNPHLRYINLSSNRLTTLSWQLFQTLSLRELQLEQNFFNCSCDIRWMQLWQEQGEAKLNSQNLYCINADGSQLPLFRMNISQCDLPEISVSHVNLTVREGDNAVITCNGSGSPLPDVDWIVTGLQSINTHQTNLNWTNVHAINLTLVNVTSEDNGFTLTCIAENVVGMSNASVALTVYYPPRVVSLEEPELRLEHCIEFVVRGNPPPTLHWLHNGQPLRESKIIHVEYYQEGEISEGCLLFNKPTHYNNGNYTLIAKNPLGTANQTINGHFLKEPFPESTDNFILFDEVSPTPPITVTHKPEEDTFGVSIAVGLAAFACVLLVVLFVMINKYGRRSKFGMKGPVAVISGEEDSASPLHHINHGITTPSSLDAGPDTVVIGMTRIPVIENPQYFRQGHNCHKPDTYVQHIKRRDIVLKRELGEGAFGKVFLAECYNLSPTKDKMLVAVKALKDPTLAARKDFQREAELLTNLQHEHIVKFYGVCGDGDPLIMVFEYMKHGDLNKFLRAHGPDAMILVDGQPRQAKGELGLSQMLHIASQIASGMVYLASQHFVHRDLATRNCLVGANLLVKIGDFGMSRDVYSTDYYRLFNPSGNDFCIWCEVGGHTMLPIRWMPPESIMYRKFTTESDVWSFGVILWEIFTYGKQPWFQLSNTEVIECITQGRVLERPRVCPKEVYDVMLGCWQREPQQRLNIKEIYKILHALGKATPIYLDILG
T1 sequence (P04629 440-796 limits assumed): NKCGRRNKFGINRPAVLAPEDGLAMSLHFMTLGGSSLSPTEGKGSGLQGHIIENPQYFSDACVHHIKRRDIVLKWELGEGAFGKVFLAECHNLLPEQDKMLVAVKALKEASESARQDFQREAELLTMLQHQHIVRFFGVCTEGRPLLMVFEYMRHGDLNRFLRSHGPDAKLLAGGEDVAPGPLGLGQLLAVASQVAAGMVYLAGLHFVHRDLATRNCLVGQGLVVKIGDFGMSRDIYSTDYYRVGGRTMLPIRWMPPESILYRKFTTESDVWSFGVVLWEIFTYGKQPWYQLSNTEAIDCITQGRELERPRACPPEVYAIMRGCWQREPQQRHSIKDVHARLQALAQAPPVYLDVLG
T3 sequence (Q16288 32-839): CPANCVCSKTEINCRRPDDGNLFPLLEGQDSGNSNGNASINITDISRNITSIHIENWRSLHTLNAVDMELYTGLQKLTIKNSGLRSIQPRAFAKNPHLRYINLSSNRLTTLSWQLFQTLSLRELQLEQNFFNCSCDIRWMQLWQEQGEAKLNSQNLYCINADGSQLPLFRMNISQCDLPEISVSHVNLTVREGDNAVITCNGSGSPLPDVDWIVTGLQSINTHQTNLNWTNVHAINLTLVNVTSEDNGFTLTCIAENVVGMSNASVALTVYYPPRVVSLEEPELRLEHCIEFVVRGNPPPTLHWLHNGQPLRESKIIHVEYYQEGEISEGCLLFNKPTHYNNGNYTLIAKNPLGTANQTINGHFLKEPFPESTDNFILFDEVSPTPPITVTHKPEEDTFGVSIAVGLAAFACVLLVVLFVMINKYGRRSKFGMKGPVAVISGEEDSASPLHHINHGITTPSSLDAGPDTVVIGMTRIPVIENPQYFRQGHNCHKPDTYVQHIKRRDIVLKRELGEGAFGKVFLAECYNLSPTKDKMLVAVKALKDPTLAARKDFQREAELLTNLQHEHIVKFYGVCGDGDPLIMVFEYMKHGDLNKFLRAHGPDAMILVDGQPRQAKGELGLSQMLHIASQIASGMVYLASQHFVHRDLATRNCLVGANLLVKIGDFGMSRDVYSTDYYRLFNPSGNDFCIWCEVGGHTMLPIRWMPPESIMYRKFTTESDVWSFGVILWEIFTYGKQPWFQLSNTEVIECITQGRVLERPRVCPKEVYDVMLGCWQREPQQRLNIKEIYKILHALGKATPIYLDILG
T2 sequence (Q16620 32-822): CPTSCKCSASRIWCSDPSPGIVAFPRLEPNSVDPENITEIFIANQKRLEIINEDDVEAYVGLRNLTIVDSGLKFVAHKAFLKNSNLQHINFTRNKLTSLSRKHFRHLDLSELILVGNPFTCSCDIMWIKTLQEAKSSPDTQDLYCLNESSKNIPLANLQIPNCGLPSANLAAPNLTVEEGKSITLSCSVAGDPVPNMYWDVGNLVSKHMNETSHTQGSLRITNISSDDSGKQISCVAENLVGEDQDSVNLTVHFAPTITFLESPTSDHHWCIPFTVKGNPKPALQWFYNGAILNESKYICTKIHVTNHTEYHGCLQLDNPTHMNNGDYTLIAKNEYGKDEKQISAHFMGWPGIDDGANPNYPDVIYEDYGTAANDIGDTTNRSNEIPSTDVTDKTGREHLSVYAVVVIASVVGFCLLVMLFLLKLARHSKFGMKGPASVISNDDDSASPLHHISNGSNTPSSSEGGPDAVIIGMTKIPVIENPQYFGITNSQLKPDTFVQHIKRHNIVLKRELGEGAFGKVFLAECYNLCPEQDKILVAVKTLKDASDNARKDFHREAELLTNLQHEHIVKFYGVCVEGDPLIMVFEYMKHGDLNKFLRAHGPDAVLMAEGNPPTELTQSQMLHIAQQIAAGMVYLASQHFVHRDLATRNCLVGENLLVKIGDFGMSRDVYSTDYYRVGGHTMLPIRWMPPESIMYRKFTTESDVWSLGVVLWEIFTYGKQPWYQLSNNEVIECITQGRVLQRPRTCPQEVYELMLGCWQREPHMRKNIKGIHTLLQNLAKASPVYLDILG
T4 sequence (P04629 510-796 limits assumed): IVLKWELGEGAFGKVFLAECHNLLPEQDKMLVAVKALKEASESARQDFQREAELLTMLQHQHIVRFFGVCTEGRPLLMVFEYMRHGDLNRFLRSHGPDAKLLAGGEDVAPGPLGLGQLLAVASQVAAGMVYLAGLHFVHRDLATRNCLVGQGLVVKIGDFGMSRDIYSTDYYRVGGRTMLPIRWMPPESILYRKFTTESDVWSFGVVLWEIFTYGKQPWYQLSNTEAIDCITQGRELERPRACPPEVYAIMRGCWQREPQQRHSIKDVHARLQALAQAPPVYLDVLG

O=S(=O)(Nc1ccc2[nH]nc(/C=C/c3ccccn3)c2c1)c1cc(F)cc(F)c1 [DYX-165, (E)-3,5-difluoro-N-(3-(2-(pyridin-2-yl)vinyl)-1H-indazol-5-yl)benzenesulfonamide]
IC50 (TRKA): 1.3 nM
IC50 (TRKB): 3.2 nM
IC50 (TRKC): 2.4 nM
IC50 (BaF3-CD74-NTRK1): 126 nM
IC50 (BaF3-ETV6-NTRK2): 48.9 nM
IC50 (BaF3-ETV6-NTRK3): 43.7 nM
Residual percentage (%) 0 min ([1]; rat hepatocytes, 0 min, average value): 100.00%
Residual percentage (%) 5 min ([1]; rat hepatocytes, 5 min, average value): 92.73%
Residual percentage (%) 15 min ([1]; rat hepatocytes, 15 min, average value): 84.16%
Residual percentage (%) 30 min ([1]; rat hepatocytes, 30 min, average value): 73.15%
Residual percentage (%) 60 min ([1]; rat hepatocytes, 60 min, average value): 59.81%
Residual percentage (%) 120 min ([1]; rat hepatocytes, 120 min, average value): 58.02%
metabolic stability (in words) ([1]; rat hepatocytes, comparison with DYX244-1 and DYX318): better metabolic stability
half-life at 1 μM ([1]; rat, rat hepatocytes (suspension)): 2.57 h
Half-life ([2]; Sprague-Dawley, rat, plasma, oral administration, 25 mg/kg, read-out: Half-life (converted)): 1.54 h
Area under the drug-time curve (0-t) ([2]; oral administration, 25 mg/kg): 1035.70 µM·h
Area under the drug-time curve (0-∞) ([2]; oral administration, 25 mg/kg): 1035.78 µM·h
Maximum blood concentration ([2]; oral administration, 25 mg/kg): 91.56 µM
Time to Peak ([2]; oral administration, 25 mg/kg): 4.00 h
oral absorption properties (in words) ([2]; oral, comparison with DYX244-1): better oral absorption properties
inhibitory activity against TRKs kinase (in words) (TRKs (TRK1, TRK2, TRK3)): strong inhibitory activity
inhibitory activity against cell proliferation of the Ba/F3-TRK stable strains (in words) (Ba/F3-TRK stable strains): strong inhibitory activity
